Assays:
[1] = Cement binding: percent of species absorbed to cement, by ion chromatography; details: for % binding to cement: Example 6, procedure of Example 1B; for % adsorbed: 1% acid in 2% KOH solution, 30 g solution on 3 g cement, 10 min
Procedure: Each acid was dissolved at 1% by weight in a 2% by weight KOH solution. Thirty grams of solution was exposed to 3 g of Type I/II cement in a tube, and mixed on a tube rotator for 10 min @ 30 rpm. The resulting slurry was centrifuged for 1 min at 4000 rpm to separate the cement and adsorbed compounds from the soluble species. The soluble portion was filtered with a 0.2 micron syringe filter and then analyzed by ion chromatography using an ICS-2100 RFIC by Dionex with single point calibration with a standard at 100 ppm. Samples and standards were prepared in 50 mM KOH solution. Samples' dilutions were adjusted to be within calibration range. Data analysis run through peak area integration.
The cement binding is expressed as a percent of the species present that absorbed to the cement.

[2] = Etch quality of in-form surface retarder on cast concrete after pressure washing; details: for surface etch: Example 6, procedure of Example 2
Procedure: Each was used to make an in-form surface retarder by combining the materials shown below, in the order listed, in a Silverson-high shear rotor-stator mixer at 5000 rpm, and mixing for 10 minutes after the final addition.
The exemplary in-form surface retarder was roller applied in rectangles on a wood form at a rate of 400 ft^2/gallon and allowed to dry for 2 hours at 72° F.
The concrete was poured into the wood form which has the surface retarder paint applied. The concrete was allowed to dry and cure without covering for 22 hours at a temperature of 90° F.
After 22 hours of curing, the concrete was removed from the wood mold and sprayed with high pressure water from a 1900 psi pressure washer to remove the in-form surface retarder and retarded cement paste. Washing continued until water was running clear and no further cement paste is removed (this process removes whatever cement paste that has not hardened to the surface of the concrete due to the retarding effects of the acids tested).

[3] = Solubility of acids in water, saturated solution measured by Total Organic Carbon; details: in 100 mL water, 25° C., stirred 14 hours, TOC
Procedure: The mixture was allowed to settle and the saturated aqueous solution of acid was decanted. Concentration was measured by Total Organic Carbon using a TOC-L CSH/CSN by Shimadzu. A calibration curve is generate based off a four point calibration of 0 ppm, 25 ppm, 50 ppm, and 100 ppm carbon. Samples are then diluted to a predetermined dilution factor. 20 mL of the diluted samples are acidified to a pH of ^˜2-3 with hydrochloric acid. Samples are run based off the calibration curve performing two 50 uL injections each to determine the total organic carbon of the sample.

[4] = Table 5: resin in the given solvent
Procedure: The solubility of resin in various organic solvents was evaluated by observation. A small amount of resin (0.2 g) was placed in a vial with 3 mL of the solvent. Observations were made immediately, after two hours and thirty minutes, and after 15 hours.

[5] = Example 2: retarder with 8 g acid, 400 ft^2/gallon on wood form, concrete cured 22 hours at 90° F., compared to FIG. 1
[6] = Example 3, same procedure as Example 2, tartaric acid forms compared

% adsorbed [1] [%] | Molecule | Etch depth [2, 5] | also measured
 | OB(O)O [Boric Acid by ICP, Boric Acid] |  | % binding to cement [1]: 100%
6.3 | O=C(O)CC(=O)O [Malonic Acid] | too deep, coarse aggregates visible | 
 | NCCCCCCCCCCCC(=O)O [12-Aminododecanoic Acid] |  | % binding to cement [1]: 90%; surface etch [2]: very light to none
6.4 | O=C(O)CCC(=O)O [Succinic Acid] | Lighter than optimum, not even | 
 | O=C[C@H](O)[C@@H](O)[C@H](O)[C@H](O)CO [D-(+)-Glucose] |  | % binding to cement [1]: 100%
 | CCCCOC(C)=O [Butyl Acetate] |  | Resin solubility [4]: Dissolved
1.1 | O=C(O)CCCCC(=O)O [Adipic Acid] | Lighter than optimum, not even | 
0 | C/C(=C\C(=O)O)C(=O)O [Mesaconic Acid] | Very light to none | 
1.9 | C/C(=C/C(=O)O)C(=O)O [Citraconic Acid] | Lighter than optimum, not even | 
 | O=C(O)/C=C(\CC(=O)O)C(=O)O [trans-Aconitic Acid] |  | % binding to cement [1]: 5%
 | Xylene |  | Resin solubility [4]: Dissolved
94.8 | O=C(O)C(=O)O [Oxalic Acid] | just right, light etch showing sand textures | 
0 | O=C(O)c1ccccc1C(=O)O [Phthalic Acid] | Very light to none | 
 | O=C(O)CN(CCN(CC(=O)O)CC(=O)O)CC(=O)O [Ethylenediamine-tetraacetic] |  | % binding to cement [1]: 36%; surface etch [2]: very light to none

Molecule | % adsorbed [1] [%] | Etch depth [2, 5] | also measured
O=C(O)C(O)C(O)C(=O)O (racemic) [DL-Tartaric Acid] | 31.6 | just right, light etch showing sand textures | Etch depth [2, 6]: just right, light etch showing sand textures
CC(C(=O)O)C(=O)O [Methymalonic Acid, Methylmalonic acid] | 7.0 | Very light to none | Solubility [3]: 5 g/100 g
O=C(O)C(O)C(O)C(=O)O (centres unmarked) [D Tartaric Acid] | 29.1 | too deep, coarse aggregates visible | Etch depth [2, 6]: too deep, coarse aggregates visible
O=C(O)CCCC(=O)O [Glutaric Acid] | 0 | just right, light etch showing sand textures | Solubility [3]: 36 g/100 g
O=C(O)C(O)C(O)C(=O)O (centres unmarked) [L Tartaric Acid] | 21.5 | too deep, coarse aggregates visible | Etch depth [2, 6]: too deep, coarse aggregates visible
